The NIST ThermoML archive (doi:10.1016/j.fluid.2008.10.003)

Test: isobaric coefficient of expansion; xn = mol fraction of the nth substance listed
Details: calorimetric method

CCCCCCO [hexan-1-ol] + CCCCCC
isobaric coefficient of expansion
Details | 5000 kPa | 10000 kPa | 15000 kPa | 20000 kPa | 25000 kPa | 30000 kPa | 35000 kPa | 40000 kPa | 45000 kPa | 50000 kPa
278.15 K, x1 = 0.0321 | 0.00122 1/K | 0.00117 1/K | 0.00114 1/K | 0.0011 1/K | 0.00107 1/K | 0.00104 1/K | 0.00101 1/K | 0.000982 1/K | 0.000957 1/K | 0.000935 1/K
278.15 K, x1 = 0.041 | 0.00122 1/K | 0.00118 1/K | 0.00114 1/K | 0.0011 1/K | 0.00107 1/K | 0.00104 1/K | 0.00101 1/K | 0.000977 1/K | 0.000958 1/K | 0.000937 1/K
278.15 K, x1 = 0.0946 | 0.00119 1/K | 0.00115 1/K | 0.00112 1/K | 0.00108 1/K | 0.00105 1/K | 0.00102 1/K | 0.000997 1/K | 0.000967 1/K | 0.000942 1/K | 0.000925 1/K
278.15 K, x1 = 0.1679 | 0.00116 1/K | 0.00112 1/K | 0.00108 1/K | 0.00105 1/K | 0.00102 1/K | 0.000996 1/K | 0.000974 1/K | 0.000947 1/K | 0.000923 1/K | 0.000907 1/K
278.15 K, x1 = 0.2153 | 0.00114 1/K | 0.0011 1/K | 0.00107 1/K | 0.00103 1/K | 0.00101 1/K | 0.000979 1/K | 0.000958 1/K | 0.000928 1/K | 0.000909 1/K | 0.000892 1/K
278.15 K, x1 = 0.3016 | 0.0011 1/K | 0.00106 1/K | 0.00103 1/K | 0.000999 1/K | 0.000978 1/K | 0.000953 1/K | 0.000932 1/K | 0.000911 1/K | 0.000887 1/K | 0.000868 1/K
278.15 K, x1 = 0.4075 | 0.00105 1/K | 0.00102 1/K | 0.000995 1/K | 0.000967 1/K | 0.000946 1/K | 0.000921 1/K | 0.000903 1/K | 0.000877 1/K | 0.000859 1/K | 0.000844 1/K
278.15 K, x1 = 0.503 | 0.00101 1/K | 0.000989 1/K | 0.000961 1/K | 0.00094 1/K | 0.000917 1/K | 0.000893 1/K | 0.000876 1/K | 0.000851 1/K | 0.000835 1/K | 0.00082 1/K
278.15 K, x1 = 0.594 | 0.000978 1/K | 0.000951 1/K | 0.000932 1/K | 0.000902 1/K | 0.000887 1/K | 0.000864 1/K | 0.00085 1/K | 0.000831 1/K | 0.000804 1/K | 0.0008 1/K
278.15 K, x1 = 0.6827 | 0.000937 1/K | 0.000916 1/K | 0.000897 1/K | 0.000874 1/K | 0.000857 1/K | 0.00084 1/K | 0.000824 1/K | 0.000804 1/K | 0.000791 1/K | 0.000775 1/K
278.15 K, x1 = 0.8013 | 0.000892 1/K | 0.000865 1/K | 0.000857 1/K | 0.000834 1/K | 0.000819 1/K | 0.000806 1/K | 0.000784 1/K | 0.000769 1/K | 0.000756 1/K | 0.000745 1/K
278.15 K, x1 = 0.8934 | 0.00085 1/K | 0.000837 1/K | 0.000817 1/K | 0.000803 1/K | 0.000789 1/K | 0.000775 1/K | 0.000756 1/K | 0.000751 1/K | 0.000733 1/K | 0.000723 1/K
278.15 K, x1 = 1 | 0.000821 1/K | 0.0008 1/K | 0.000788 1/K | 0.000778 1/K | 0.00076 1/K | 0.000748 1/K | 0.000733 1/K | 0.000723 1/K | 0.000716 1/K | 0.000708 1/K
298.15 K, x1 = 0.0321 | 0.0013 1/K | 0.00124 1/K | 0.0012 1/K | 0.00115 1/K | 0.00111 1/K | 0.00107 1/K | 0.00104 1/K | 0.00101 1/K | 0.00098 1/K | 0.000951 1/K
298.15 K, x1 = 0.041 | 0.0013 1/K | 0.00124 1/K | 0.0012 1/K | 0.00115 1/K | 0.00111 1/K | 0.00108 1/K | 0.00104 1/K | 0.00101 1/K | 0.000985 1/K | 0.000959 1/K
298.15 K, x1 = 0.0946 | 0.00127 1/K | 0.00122 1/K | 0.00118 1/K | 0.00113 1/K | 0.0011 1/K | 0.00106 1/K | 0.00103 1/K | 0.000999 1/K | 0.000969 1/K | 0.000946 1/K
298.15 K, x1 = 0.1679 | 0.00124 1/K | 0.00119 1/K | 0.00115 1/K | 0.0011 1/K | 0.00107 1/K | 0.00104 1/K | 0.00101 1/K | 0.000977 1/K | 0.00095 1/K | 0.000926 1/K
298.15 K, x1 = 0.2153 | 0.00121 1/K | 0.00116 1/K | 0.00112 1/K | 0.00108 1/K | 0.00105 1/K | 0.00102 1/K | 0.000988 1/K | 0.000962 1/K | 0.000936 1/K | 0.000913 1/K
298.15 K, x1 = 0.3016 | 0.00117 1/K | 0.00112 1/K | 0.00109 1/K | 0.00105 1/K | 0.00101 1/K | 0.000984 1/K | 0.000958 1/K | 0.000935 1/K | 0.000908 1/K | 0.000883 1/K
298.15 K, x1 = 0.4075 | 0.00112 1/K | 0.00108 1/K | 0.00105 1/K | 0.00102 1/K | 0.000986 1/K | 0.000957 1/K | 0.00093 1/K | 0.000912 1/K | 0.000888 1/K | 0.000868 1/K
298.15 K, x1 = 0.503 | 0.00108 1/K | 0.00104 1/K | 0.00101 1/K | 0.000982 1/K | 0.000952 1/K | 0.000928 1/K | 0.000904 1/K | 0.000879 1/K | 0.000864 1/K | 0.000844 1/K
298.15 K, x1 = 0.594 | 0.00103 1/K | 0.001 1/K | 0.000975 1/K | 0.000944 1/K | 0.00092 1/K | 0.000897 1/K | 0.000873 1/K | 0.000856 1/K | 0.000836 1/K | 0.000819 1/K
298.15 K, x1 = 0.6827 | 0.000993 1/K | 0.000965 1/K | 0.000939 1/K | 0.000913 1/K | 0.00089 1/K | 0.000868 1/K | 0.000846 1/K | 0.000827 1/K | 0.000812 1/K | 0.000794 1/K
298.15 K, x1 = 0.8013 | 0.000938 1/K | 0.000913 1/K | 0.00089 1/K | 0.000868 1/K | 0.000848 1/K | 0.00083 1/K | 0.000809 1/K | 0.000792 1/K | 0.000778 1/K | 0.000763 1/K
298.15 K, x1 = 0.8934 | 0.000896 1/K | 0.000874 1/K | 0.000855 1/K | 0.000835 1/K | 0.000816 1/K | 0.000797 1/K | 0.000781 1/K | 0.000763 1/K | 0.000751 1/K | 0.000739 1/K
298.15 K, x1 = 1 | 0.00085 1/K | 0.000832 1/K | 0.000812 1/K | 0.000796 1/K | 0.00078 1/K | 0.000764 1/K | 0.000749 1/K | 0.000734 1/K | 0.000724 1/K | 0.000712 1/K
